Reference: US20240390377A1, “COMPOSITION FOR THE PREVENTION OR TREATMENT OF NEURODEGENERATIVE OR MOTOR NEURON DISEASES COMPRISING HALOFUGINONE AS AN ACTIVE INGREDIENT” (CURAMYS CO., LTD., priority 2022, published 2024)

Experiments:
C2C12 cells = assay: Real-time qRT-PCR analysis of C2C12 myoblasts (TGF-β1 stimulation, halofuginone treatment); assay type: cell-based, mouse; conditions: low (5 ng/ml) or high (10 ng/ml) concentration halofuginone, 24 h (FIG. 4a)
Experimental: Specifically, C2C12 cells (CRL-1772) were purchased from the American Type Culture Collection (ATCC) and maintained in DMEM medium (Welgene) containing 10% (v/v) fetal bovine serum (FBS; Gibco) and 1% penicillin-streptomycin (P/S; Gibco) at 37° C. under 5% CO2 conditions. The C2C12 cells were seeded in 6-well plates at a density of 3×10^5 cells per well and allowed to adhere for 24 hours. Subsequently, the medium was replaced with serum-free medium after 24 hours, followed by stimulation with 5 ng/ml rhTGF-β1 (recombinant human TGF-β1; R&D Systems). After stimulation, the cells were treated with various concentrations (0 [control], or 1, 2.5, 5 [low dose], 10 [high dose], 20, 50, 100 ng/ml) of halofuginone (Sigma) in serum-free medium for 24 hours.
Specifically, total RNA was isolated from C2C12 cells in Example 1, fibroblasts in Example 5, and the lumbar spinal cord of mice in Example 6 using the FavorPrep™ Tri-RNA Reagent (Favorgen). The lumbar spinal cord was isolated from the mouse in Example 6 and stored frozen at −80° C. until the experiment. The concentration of total RNA was measured at 260 nm absorbance using a spectrophotometer (NanoDrop Spectrophotometer ND-2000, Thermo Scientific). cDNA was synthesized from 1 μg of total RNA using the ReverTra Ace-α™ (Toyobo) according to the manufacturers protocol. Quantitative RT-PCR was performed using the SYBR Green ExcelTaq™ 2× Fast Q-PCR Master Mix (TQ1200, Smobio) on a thermocycler (CFX Connect Real-Time PCR Detection System, BIO-RAD) with the primers listed in Table 3 below. Fluorescence data were analyzed with Bio-Rad CFX Manager 3.1 software, and control versus relative mRNA expression was calculated by the 2AT) method. Experiments were performed four times on all samples. All primers were designed using Primer3 online software, and GAPDH was used as a control group.
Specifically, after treating C2C12 cells with TGF-β1 for 24 hours as in Example 1, real-time qRT-PCR was performed in the same manner as in Example 11 to confirm TGF-β1, 2 and 3, α-SMA and MyoD mRNA expression (FIG. 2a), and Western blot analysis was performed in the same manner as in Example 12 to confirm autocrine expression of TGF-β1 and MyoD protein and α-SMA (FIG. 2b).
Specifically, as in Example 1, C2C12 cells were stimulated with TGF-β1 for 24 hours, and then halofuginone was treated for 24 hours, and real-time qRT-PCR was performed in the same manner as in Example 11 to confirm TGF-β1, α-SMA, MyoD, and collagen I (Col-I) mRNA expression (FIG. 4a). In addition, Western blot analysis was performed in the same manner as in Example 12 to confirm TGF-β1, α-SMA, MyoD, and collagen I protein expression (FIG. 4b). In addition, immunocytochemical analysis was performed in the same manner as in Example 3 to confirm α-SMA and MyoD expression (FIG. 4c).

[1] = test system: G93A mutant SOD1 transgenic mice; assay: Immunohistochemical analysis of knee joint synovial cavity in ALS animal model; assay type: in vivo, mouse
Experimental: As a control group, non-transgenic mice were injected intraperitoneally (i.p.) with vehicle (DMSO) in the same manner for the same period of time.
Specifically, the mice of Example 6 above were perfused with 4% paraformaldehyde (PFA) on 90 and 120 days of age, and the lumbar spinal cord and knee joints were separated. After fixation in 4% PFA for 24 hours, the knee joints were rinsed in running tap water for 24 hours and then incubated at 4° C. with continuous shaking in decalcifying solution (Calci-Clear, HS-104, National Diagnostics). The decalcification solution was replaced daily with fresh solution until the bones were easily penetrated with a needle, indicating completion of the decalcification process. Subsequently, the decalcified knee joints were rinsed in running tap water for 24 hours, and the spinal cord and knee joint samples were treated with 30% sucrose until they sank, followed by freeze protection, followed by successive cuts (14 μm). The lumbar spinal cord and knee joint tissue sections were washed three times with PBS and permeabilized with 0.5% Triton X-100 for 5 minutes. Subsequently, they were blocked with 5% bovine serum albumin (BSA) in 0.3% PBS-T at room temperature for 1 hour. The knee joint tissue sections were incubated with anti-TGF-β1 antibody (1:200; Santa Cruz, cat #sc130348), anti-α-SMA antibody (1:200; Abcam, cat #ab7817), anti-MyoD antibody (1:200; Santa Cruz, cat #sc377460), and anti-Collagen I antibody (1:200; Abcam, cat #ab21286) each, while the lumbar spinal cord sections were incubated with anti-GFAP antibody (1:200; Dako, cat #Z0334), anti-Iba1 antibody (1:200; Wako, cat #016)-20001), anti-TGF-β1 antibody (1:200; Santa Cruz, cat #sc130348), anti-TGF-β1 antibody (1:200; Abcam, cat #ab92486), and anti-IL-1β antibody (1:200; R&D Systems, cat #AF-401-NA) at 4° C. for an additional 24 hours. After washing the sections three times with PBS, they were incubated with Alexa Fluor secondary antibodies in a dark chamber at room temperature for 1 hour. […] Furthermore, analysis was performed using Leica Application Suite X software (Leica Microsystems).
Specifically, halofuginone was administered to G93A mutant SOD1 mice from the early onset of ALS (day 73) in the same manner as described in Example 6. Immunohistochemical analysis was performed on the knee joints of early-stage female and male mice (90 days old, FIGS. 7a and 7b) and late-stage female and male mice (120 days old, FIGS. 7c and 7d) in the same manner as described in <Example 8>.

[2] = 90 days old (early stage), females and males, vs DMSO TG group
[3] = 120 days old (late stage), vs DMSO TG group

O=C(C[C@H]1NCCC[C@@H]1O)Cn1cnc2cc(Br)c(Cl)cc2c1=O (racemic) [halofuginone]
decrease in MyoD mRNA level by TGF-β1 stimulation (C2C12 cells): significantly recovered
increase in TGF-β1 mRNA level by TGF-β1 stimulation (C2C12 cells): significantly reduced
increase in collagen I mRNA level by TGF-β1 stimulation (C2C12 cells): significantly reduced
increase in α-SMA mRNA level by TGF-β1 stimulation (C2C12 cells): significantly reduced
increase in TGF-β in knee joint synovial cavity ([1]; 90 days old (early stage), females and males, 250 μg/kg i.p.): suppressed
Col-I expression in knee joint synovial cavity [1, 2]: significantly lower
α-SMA expression in knee joint synovial cavity [1, 2]: significantly lower
Col-I in the synovial cavity [1, 3]: significantly lower
MyoD in the synovial cavity [1, 3]: higher
TGF-β1 in the synovial cavity [1, 3]: significantly lower
α-SMA in the synovial cavity [1, 3]: significantly lower
strength of TGF-β1, MyoD and Col-1 in the synovial cavity ([1]; 120 days old, female Hal TG group vs DMSO non-TG group): not different
strength of MyoD in the synovial cavity ([1]; 120 days old, male Hal TG group vs DMSO non-TG group): slightly increased
